# Publication PMC7614683, “A small molecule PI3Kα activator for cardioprotection and neuroregeneration” (Nature, 2023)
# Target: T1, full length p110α/p85α (Homo sapiens, UniProt P42336)
# T1 construct: Full-length human p110α was expressed either in a complex with full-length human p85α (for HTS, biochemistry and HDX-MS); 6xHis tag followed by TEV protease site (N); host or cells: Spodoptera frugiperda Sf9, baculovirus
# Test: HDX-MS
# Type: binding
# Procedure: Sample preparation: HDX-MS experiments were carried out as described previously. […] In total, three biological replicates, i.e. three separate protein preparations, each with exchange experiments carried out in triplicate were conducted. Data presented in the manuscript is a single biological replicate. Data acquisition and analysis were as follows: Each sample was thawed and injected onto an M-Class Acquity UPLC with HDX Technology (Waters) kept at 0.1°C. Proteins were digested in-line using an Enzymate Pepsin Column (Waters, #186007233) at 15°C for 2 min at 200 μl/min. Peptic peptides were then eluted onto an Acquity UPLC BEH C18 Column (Waters, #186002346) equilibrated in Pepsin-A buffer (0.1% formic acid) and separated using a 5-35% gradient of Pepsin-B buffer (0.1% formic acid, 99% acetonitrile) over 7 min at a flowrate of 40 μl/min. Data were collected on a Waters Cyclic IMS, with an electrospray ionisation source, from 50-2000 m/z. Data were collected in the HDMS^E mode. A single pass of the cyclic IMS was conducted. A “blank” sample of protein dilution buffer with quench was run between samples, and carry-over of peptides was routinely monitored. Five replicates were used to identify non-deuterated peptides. Criteria used to include peptides in the HDX-MS dataset were: minimum intensity 5000, minimum sequence length 5, maximum sequence length 25, a minimum of 3 fragment ions, a minimum of 0.1 products per amino acid, a minimum score of 6.62, a maximum MH+ Error of 10 ppm, identification in at least two datasets with a retention time RSD of less than 10%. Data was analysed using Protein Lynx Global Server (Waters) and DynamX (Waters). All peptides were manually inspected for EX1 kinetics and sufficient quality of the peptide envelope. Data quality, experiment design, and reporting of data meets the criteria as determined by the HDX-MS community. Uptake files were created using Baryonyx. Data are available via ProteomeXchange with identifier PXD037721.
# [1] = PK3CA_HUMAN peptide 241-250, time point 3 of 5
# [2] = PK3CA_HUMAN peptide 241-250, time point 4 of 5
# [3] = PK3CA_HUMAN peptide 241-250, time point 5 of 5
# [4] = PK3CA_HUMAN peptide 260-266, time point 1 of 5
# [5] = PK3CA_HUMAN peptide 260-266, time point 2 of 5
# [6] = PK3CA_HUMAN peptide 260-266, time point 3 of 5
# [7] = PK3CA_HUMAN peptide 260-266, time point 4 of 5
# [8] = PK3CA_HUMAN peptide 260-266, time point 5 of 5
# [9] = PK3CA_HUMAN peptide 262-272, time point 1 of 5
# [10] = PK3CA_HUMAN peptide 262-272, time point 2 of 5
# [11] = PK3CA_HUMAN peptide 262-272, time point 3 of 5
# [12] = PK3CA_HUMAN peptide 262-272, time point 4 of 5
# [13] = PK3CA_HUMAN peptide 262-272, time point 5 of 5
# [14] = PK3CA_HUMAN peptide 273-281, time point 1 of 5
# [15] = PK3CA_HUMAN peptide 273-281, time point 2 of 5
# [16] = PK3CA_HUMAN peptide 273-281, time point 3 of 5
# [17] = PK3CA_HUMAN peptide 273-281, time point 4 of 5
# [18] = PK3CA_HUMAN peptide 273-281, time point 5 of 5
# [19] = PK3CA_HUMAN peptide 278-286, time point 1 of 5
# [20] = PK3CA_HUMAN peptide 278-286, time point 2 of 5
# [21] = PK3CA_HUMAN peptide 278-286, time point 3 of 5
# [22] = PK3CA_HUMAN peptide 278-286, time point 4 of 5
# [23] = PK3CA_HUMAN peptide 278-286, time point 5 of 5
# [24] = PK3CA_HUMAN peptide 287-293, time point 1 of 5
# [25] = PK3CA_HUMAN peptide 287-293, time point 2 of 5
# [26] = PK3CA_HUMAN peptide 287-293, time point 3 of 5
# [27] = PK3CA_HUMAN peptide 287-293, time point 4 of 5
# [28] = PK3CA_HUMAN peptide 287-293, time point 5 of 5
# [29] = PK3CA_HUMAN peptide 288-293, time point 1 of 5
# [30] = PK3CA_HUMAN peptide 288-293, time point 2 of 5
# [31] = PK3CA_HUMAN peptide 288-293, time point 3 of 5
# [32] = PK3CA_HUMAN peptide 288-293, time point 4 of 5
# [33] = PK3CA_HUMAN peptide 288-293, time point 5 of 5
# [34] = PK3CA_HUMAN peptide 326-333, time point 1 of 5
# [35] = PK3CA_HUMAN peptide 326-333, time point 2 of 5
# [36] = PK3CA_HUMAN peptide 326-333, time point 3 of 5
# [37] = PK3CA_HUMAN peptide 326-333, time point 4 of 5
# T1 sequence (P42336 whole entry): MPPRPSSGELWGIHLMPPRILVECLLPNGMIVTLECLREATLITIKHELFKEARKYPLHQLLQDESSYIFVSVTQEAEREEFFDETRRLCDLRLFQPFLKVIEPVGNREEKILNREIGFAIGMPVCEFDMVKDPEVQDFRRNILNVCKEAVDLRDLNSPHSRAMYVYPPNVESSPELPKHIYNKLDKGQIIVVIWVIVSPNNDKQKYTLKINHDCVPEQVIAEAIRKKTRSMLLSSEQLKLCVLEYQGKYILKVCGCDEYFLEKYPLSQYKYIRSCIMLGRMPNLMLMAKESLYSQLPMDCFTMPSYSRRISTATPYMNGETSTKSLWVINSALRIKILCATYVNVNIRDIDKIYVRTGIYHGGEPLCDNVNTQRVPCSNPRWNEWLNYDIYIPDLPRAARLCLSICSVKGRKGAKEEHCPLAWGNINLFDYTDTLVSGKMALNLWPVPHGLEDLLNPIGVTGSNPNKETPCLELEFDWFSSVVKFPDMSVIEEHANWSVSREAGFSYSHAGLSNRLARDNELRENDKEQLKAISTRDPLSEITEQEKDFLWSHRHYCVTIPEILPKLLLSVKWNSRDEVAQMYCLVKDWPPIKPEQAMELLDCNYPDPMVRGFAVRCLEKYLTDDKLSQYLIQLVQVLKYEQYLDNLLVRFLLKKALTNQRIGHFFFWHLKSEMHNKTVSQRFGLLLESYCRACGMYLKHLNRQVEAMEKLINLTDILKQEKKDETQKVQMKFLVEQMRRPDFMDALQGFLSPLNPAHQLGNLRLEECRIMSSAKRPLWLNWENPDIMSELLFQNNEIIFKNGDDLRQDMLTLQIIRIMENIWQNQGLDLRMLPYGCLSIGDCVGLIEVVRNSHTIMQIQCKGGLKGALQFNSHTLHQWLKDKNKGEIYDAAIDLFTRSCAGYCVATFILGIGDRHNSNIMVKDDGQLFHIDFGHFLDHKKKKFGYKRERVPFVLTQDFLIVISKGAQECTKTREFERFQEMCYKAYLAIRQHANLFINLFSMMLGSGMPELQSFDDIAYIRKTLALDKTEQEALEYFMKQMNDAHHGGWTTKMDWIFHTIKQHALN
# T1 sequence (P27986 whole entry partner): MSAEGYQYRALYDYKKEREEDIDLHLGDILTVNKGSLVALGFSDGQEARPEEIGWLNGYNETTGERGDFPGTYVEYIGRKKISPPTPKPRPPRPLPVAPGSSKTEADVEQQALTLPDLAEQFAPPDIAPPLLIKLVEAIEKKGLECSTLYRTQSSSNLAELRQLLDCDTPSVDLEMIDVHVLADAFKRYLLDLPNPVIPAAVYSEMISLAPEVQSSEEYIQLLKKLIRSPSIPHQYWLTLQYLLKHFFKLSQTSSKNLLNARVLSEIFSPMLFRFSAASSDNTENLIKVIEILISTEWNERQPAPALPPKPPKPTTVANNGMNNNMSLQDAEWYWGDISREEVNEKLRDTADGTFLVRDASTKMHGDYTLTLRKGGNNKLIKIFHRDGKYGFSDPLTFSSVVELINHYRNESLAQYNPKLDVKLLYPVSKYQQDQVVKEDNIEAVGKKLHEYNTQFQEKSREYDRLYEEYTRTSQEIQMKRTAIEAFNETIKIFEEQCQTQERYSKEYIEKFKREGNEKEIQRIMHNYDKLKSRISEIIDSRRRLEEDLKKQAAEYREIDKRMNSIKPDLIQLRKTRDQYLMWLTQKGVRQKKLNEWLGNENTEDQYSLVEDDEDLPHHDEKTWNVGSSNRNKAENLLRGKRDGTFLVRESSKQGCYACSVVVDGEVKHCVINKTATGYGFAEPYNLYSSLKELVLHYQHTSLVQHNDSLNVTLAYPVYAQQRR
smiles,measurement,setting,value
CCN1CCN(c2ccc(Nc3cc(Nc4cccc5c4N(C(C)=O)CC5)ccn3)cc2)CC1 [Compound 1938],HDX difference (%D),[1],0.6%
same,HDX difference (Da),[1],0.0529 Da
same,HDX difference (%D),[2],0.112%
same,HDX difference (Da),[2],0.01 Da
same,HDX difference (%D),[3],0.113%
same,HDX difference (Da),[3],0.01 Da
same,HDX difference (%D),[4],-0.0157%
same,HDX difference (Da),[4],-0.000943 Da
same,HDX difference (%D),[5],0.0014%
same,HDX difference (Da),[5],8.39e-5 Da
same,HDX difference (%D),[6],0.136%
same,HDX difference (Da),[6],0.00818 Da
same,HDX difference (%D),[7],0.659%
same,HDX difference (Da),[7],0.04 Da
same,HDX difference (%D),[8],1.2%
same,HDX difference (Da),[8],0.07 Da
same,HDX difference (%D),[9],-0.8%
same,HDX difference (Da),[9],-0.07 Da
same,HDX difference (%D),[10],0.264%
same,HDX difference (Da),[10],0.0238 Da
same,HDX difference (%D),[11],0.3%
same,HDX difference (Da),[11],0.0282 Da
same,HDX difference (%D),[12],-0.571%
same,HDX difference (Da),[12],-0.05 Da
same,HDX difference (%D),[13],-0.7%
same,HDX difference (Da),[13],-0.06 Da
same,HDX difference (%D),[14],1.3%
same,HDX difference (Da),[14],0.10 Da
same,HDX difference (%D),[15],0.9%
same,HDX difference (Da),[15],0.07 Da
same,HDX difference (%D),[16],0.8%
same,HDX difference (Da),[16],0.06 Da
same,HDX difference (%D),[17],0.743%
same,HDX difference (Da),[17],0.06 Da
same,HDX difference (%D),[18],0.428%
same,HDX difference (Da),[18],0.0342 Da
same,HDX difference (%D),[19],-0.131%
same,HDX difference (Da),[19],-0.01 Da
same,HDX difference (%D),[20],-0.178%
same,HDX difference (Da),[20],-0.0142 Da
same,HDX difference (%D),[21],-0.652%
same,HDX difference (Da),[21],-0.05 Da
same,HDX difference (%D),[22],-1.2%
same,HDX difference (Da),[22],-0.10 Da
same,HDX difference (%D),[23],-1.0%
same,HDX difference (Da),[23],-0.08 Da
same,HDX difference (%D),[24],0.00815%
same,HDX difference (Da),[24],0.000489 Da
same,HDX difference (%D),[25],0.168%
same,HDX difference (Da),[25],0.01 Da
same,HDX difference (%D),[26],-0.19%
same,HDX difference (Da),[26],-0.0114 Da
same,HDX difference (%D),[27],-0.0604%
same,HDX difference (Da),[27],-0.00362 Da
same,HDX difference (%D),[28],-0.4%
same,HDX difference (Da),[28],-0.0241 Da
same,HDX difference (%D),[29],-0.334%
same,HDX difference (Da),[29],-0.0167 Da
same,HDX difference (%D),[30],-0.17%
same,HDX difference (Da),[30],-0.00848 Da
same,HDX difference (%D),[31],-0.5%
same,HDX difference (Da),[31],-0.0241 Da
same,HDX difference (%D),[32],0.8%
same,HDX difference (Da),[32],0.04 Da
same,HDX difference (%D),[33],-0.113%
same,HDX difference (Da),[33],-0.00564 Da
same,HDX difference (%D),[34],-1.8%
same,HDX difference (Da),[34],-0.13 Da
same,HDX difference (%D),[35],-4.4%
same,HDX difference (Da),[35],-0.31 Da
same,HDX difference (%D),[36],-3.0%
same,HDX difference (Da),[36],-0.21 Da
same,HDX difference (%D),[37],-3.1%
same,HDX difference (Da),[37],-0.21 Da
same,HDX difference (%D),"PK3CA_HUMAN peptide 326-333, time point 5 of 5",-4.2%
